Measurements as given in patent US4339580A, “Piperazinylalkoxyindanes and acid addition salts thereof” (Mitsubishi Chemical Industries, Limited, priority 1979, dated 1982).
Where two headings read alike, the source gives them in different places.

Tests used:
[1] = system: tail reaction induced by morphine; experiment: anti-morphine activity (suppression of tail reaction induced by 20 mg/kg i.p. morphine); type: in vivo, ddy male mice; details: Mus musculus, read-out: ED50 anti-morphine activity
Protocol: (§1) As controls, chlorodiazepoxide which is known as an anti-anxiety agent or minor tranquilizer and a known Compound 40 were used. The results are summarized in terms of 50% effective dose (ED50, mg/kg P.O.) in Table 1 below.
(§2) The animals used were ddy male mice (weighing 20 to 22 g) and they were tested for anti-fighting and anti-morphine actions as indications of anti-anxiety action. The anti-fighting activity of the test compound was evaluated by its suppressing or taming effect against fighting which was developed by applying an electric shock (28 V-DC, 4-5 mA, 3 min.) through a grid to the foot of the animal [R. E. Tedeschi, D. H. Tedeschi, A. Mucha, L. Cook, P. A. Mattis, E. J. Fellows, J. Pharmacol. exp. Therap., 125, 28 (1959)] The anti-morphine activity was evaluated according to the method of Takagi et al. by the suppressing effect against a tail reaction induced by administration of 20 mg/kg i.p. of morphine [H. Takagi, T. Kamioka, S. Kobayashi, Y. Suzuki and K. Tachikawa, Japanese J. of Pharmacology, 66, 107 (1970)].

[2] = system: anti-fighting and anti-morphine actions; experiment: anti-anxiety activity (anti-fighting and anti-morphine actions as indications); type: in vivo, ddy male mice; details: PO, mice; versus chlorodiazepoxide and Compound 40
Protocol: as §1, §2

[3] = muscle relaxant action, traction test; type: in vivo, ddy male mice; details: Mus musculus, po, read-out: ED50 traction test
Protocol: as §1, §2
Muscle relaxant action was evaluated by a traction test [S. Courvoisier, R. Ducrot, L. Julou, "Psychotropic Drugs" Ed. by S. Garattini, V. Ghetti, p. 313 (Elsevier) 1957].

[4] = system: fighting developed by electric shock; experiment: anti-fighting activity (suppressing or taming effect against electric foot shock induced fighting); type: in vivo, ddy male mice; details: Mus musculus, 0.05 h, read-out: ED50 taming effect
Protocol: as §1, §2

[5] = LD50 (Litchfield-Wilcoxon method); details: mouse, in vivo, PO, mice
Protocol: as §2
The values for LD50 were calculated by the Litchfield-Wilcoxon method [J. T. Litchfield and F. Wilcoxon, J. Pharmacol. exp. Therap., 96, 99 (1949)].

[6] = PO, mice, morphine 20 mg/kg i.p.
[7] = PO, mice, electric shock 28 V-DC, 4-5 mA, 3 min.

| Compound | ED50 [1, 6] [mg/kg] | anti-anxiety activities compared with controls [2] | ED50 [3] [mg/kg] | ED50 [4, 7] [mg/kg] | LD50 [5] [mg/kg] | ED50 ([1]; po) [mg/kg] | ED50 ([4]; po) [mg/kg] |
| --- | --- | --- | --- | --- | --- | --- | --- |
| Fc1ccc(N2CCN(CCCOc3ccc4c(c3)CCC4)CC2)cc1 [Compound 4, 5-{3-[4-(4-fluorophenyl)-1-piperazinyl]propoxy}indane] | 6 | superior to those of chlorodiazepoxide and Compound 40 | 28 | 7.5 | > 2000 |  |  |
| Fc1ccc(N2CCN(CCCOc3cc4c(cc3F)CCC4)CC2)cc1 [Compound 19, 6-fluoro-5-{3-[4-(4-fluorophenyl)-1-piperazinyl]propoxy}indane] | 12.5 | superior to those of chlorodiazepoxide and Compound 40 | 17.5 | 1 | > 2000 |  |  |
| COc1cc2c(cc1OCCCN1CCN(c3ccc(F)cc3)CC1)CCC2 [Compound 30, 6-methoxy-5-{3-[4-(4-fluorophenyl)-1-piperazinyl]propoxy}indane] | 10.2 | superior to those of chlorodiazepoxide and Compound 40 | 12.5 | 13 | > 1000 |  |  |
| Cc1cc2c(cc1OCCCN1CCN(c3ccccc3)CC1)CCC2 [Compound 24, 6-methyl-5-[3-(4-phenyl-1-piperazinyl)propoxy]indane] | 16 | superior to those of chlorodiazepoxide and Compound 40 | 46 | 8.5 | > 2000 |  |  |
| Clc1cccc(N2CCN(CCCOc3ccc4c(c3)CCC4)CC2)c1 [Compound 17] | 15.5 | superior to those of chlorodiazepoxide and Compound 40 | 45 | 12.6 | > 2000 |  |  |
| c1ccc(N2CCN(CCCOc3ccc4c(c3)CCC4)CC2)cc1 [Compound 1, 5-[3-(4-phenyl-1-piperazinyl)propoxy]indane] | 6.3 | superior to those of chlorodiazepoxide and Compound 40 | 14.1 | 6.6 | > 1500 |  |  |
| CNC1=Nc2ccc(Cl)cc2C(c2ccccc2)=[N+]([O-])C1 [Chlorodiazepoxide, reference compound] |  |  | 8.3 |  | 720 | 13 | 12.5 |
| Fc1ccc(N2CCN(CCCCOc3ccc4c(c3)CCC4)CC2)cc1 [Compound 5, 5-{4-[4-(4-fluorophenyl)-1-piperazinyl]butoxy}indane] | 11.1 | superior to those of chlorodiazepoxide and Compound 40 | 21.5 | 12 | > 1100 |  |  |
| Fc1cc2c(cc1OCCCN1CCN(c3ccccc3)CC1)CCC2 [Compound 18, 6-fluoro-5-[3-(4-phenyl-1-piperazinyl)propoxy]indane] | 10.6 | superior to those of chlorodiazepoxide and Compound 40 | 14.5 | 2.9 | > 2000 |  |  |
| Fc1cc2c(cc1OCCCN1CCN(c3cccc(Cl)c3)CC1)CCC2 [Compound 21, 6-fluoro-5-{3-[4-(3-chlorophenyl)-1-piperazinyl]propoxy}indane] | 13.8 | superior to those of chlorodiazepoxide and Compound 40 | 88 | 14.5 | 1500 to 2000 |  |  |
| O=C(CCCN1CCN(c2ccc(F)cc2)CC1)c1ccc2c(c1)CCC2 [Compound 40, reference compound] | 15.5 |  | 57 | 20 | 1000 to 1500 |  |  |
